In a melting point compilation (Tetko et al.; mined from patent text by program, amines drawn as free bases though some values may be those of a salt):
Residues, ends and D or L forms follow the SMILES beside them. *: point of attachment. Boc = CC(C)(C)OC(=O)*

Row | Structure (SMILES) | melting point
1 | FC(F)(F)CC1(CC2(CC(F)(F)F)N=c3cc(Cl)c(Cl)cc3=N2)N=c2cc(Cl)c(Cl)cc2=N1 | 235 to 237 °C
2 | O=C1Cc2cccc(Sc3ccccc3)c2N1 | 160 to 161 °C
3 | ON=C1CCCc2occ(-c3cccc(Cl)c3)c21 | 157 to 158 °C
4 | NC(=O)C1=CCNCC1 | 104 to 106 °C
5 | CC(C)c1ccc(-c2ccc(-c3ccccc3)s2)s1 | 104 to 106 °C
6 | Nc1[nH]ncc1C(=O)c1cccs1 | 114 to 115 °C
7 | O=c1c2c[nH]c3ccccc3c-2nn1-c1ccc(O)cc1 | 294 to 296 °C
8 | CNN=C1CCC(C)n2c1ncc(C(=O)O)c2=O (stereo not given) | 219 to 220 °C
9 | COc1cc(OCCCN2CCC[C@H]2C)ccc1-c1ccc(=O)[nH]n1 | 182 to 186 °C
10 | CSc1nc(NC2CCCCC2)c2nonc2n1 | 129 to 130 °C
11 | CCOC(=O)c1cc(-c2ccc(Cl)cc2)c(Cl)nc1NC=O | 184 to 187 °C
12 | CCOCn1cc(C(C)=O)c2c(OC)cc(Br)nc21 | 114 to 116 °C
13 | CC1(C)Oc2ccc(C#N)cc2C(c2cccn(Cc3ccccc3)c2=O)C1O (stereo not given) | 120 to 122 °C
14 | CCC1=Cc2cc3c(cc2C(c2ccc(N)cc2)=NN1C(C)=O)OCO3 | 136 to 138 °C
15 | COc1cccc(Oc2cccc3c2C2(COc4cc5c(cc42)OCCO5)C(=O)N3C)c1 (stereo not given) | 166 to 168 °C
16 | CN1C(=O)Cc2cc(CBr)cnc21 | 65 °C
17 | CC[C@H]1[C@@H](O)[C@H](C)C(=O)N1c1ccc(C#N)c(C(F)(F)F)c1 | 113 to 119 °C
18 | O=C1CCN(CC=Cc2ccccc2)CC1C(c1ccccc1)c1ccccc1 (stereo not given) | 114 to 115 °C
19 | NCC(CC(=O)O)C1CCCC1 (stereo not given) | 178 to 180 °C

Row | Structure (SMILES) | melting point
20 | O=C1CCC(N2C(=O)c3cccc(NCc4cccs4)c3C2=O)C(=O)N1 (stereo not given) | 223 to 225 °C
21 | Cc1c(OCCCCCCC(=O)N(CCO)C2CCCCC2)ccc2c1CN1CC(=O)NC1=N2 | 148 to 150 °C
22 | CCOc1cc(C)c(NCCO)cc1[N+](=O)[O-] | 119 °C
23 | O=[N+]([O-])c1ccc(CF)cc1[N+](=O)[O-] | 37.5 to 38.5 °C
24 | CCC1C(C)=NN=C(c2ccc(O)c(OC)c2)c2cc(OC)c(O)cc21 (stereo not given) | 210 to 212 °C
25 | CSc1cccc(C2CC(=O)C=C(O)C2)c1 (stereo not given) | 141 °C
26 | CCn1cc(C(=O)O)c(=O)c2cc(F)c(N3C[C@@H](N)[C@@H](C)C3)c(F)c21 (relative stereo) | 232 to 234 °C
27 | COc1ccc2c(c1)CCC1C2CCC2(C)C(NCCCCCCNc3ccc([N+](=O)[O-])cc3[N+](=O)[O-])CCC12 (stereo not given) | 90 to 92 °C
28 | C=C(Nc1nc(-c2ccccc2)c(-c2nc3ccccc3c(=O)n2-c2ccccc2C)s1)c1ccco1 | 262 to 263 °C
29 | Cn1cc(C(=O)NCc2ccc(Cl)cc2)c(=O)c2cc(CN3CCOCC3)sc21 | 230 to 236 °C
30 | CCn1c(-c2sc(NC(=O)c3ccncc3)nc2-c2ccco2)cccc1=O | > 300 °C
31 | CC(C)(C)OC(=O)CCc1cccc(-c2nc(=O)c3ccc(C(F)(F)F)cc3s2)n1 | 148 to 149 °C
32 | O=[N+]([O-])c1cc(Br)c(NS(=O)(=O)c2ccccc2)cc1Br | 148 °C
33 | CCCC#CC[C@H](C[C@H](N)C(=O)O)C(=O)O | 200 to 201 °C
34 | O=C(O)CCCCCCCCCCSSCCCCCCCCCCC(=O)O | 94 °C
35 | Cc1ccc(Br)c(C)c1C(O)=S | 98 to 103 °C
36 | Cc1nc(-n2ccc(OCCC3CC3)cc2=O)sc1C(=O)NCc1ccccc1 | 172 to 174 °C
37 | CC(C)(C)OC(=O)CN(Cc1ccccc1)S(=O)(=O)c1ccc2c(Cl)cnc(Cl)c2c1 | 134 to 136 °C
38 | O=P(CN=Cc1ccccc1Cl)(c1ccccc1)c1ccccc1 | 89 °C

Row | Structure (SMILES) | melting point
39 | CC1(COC(=O)N2CC=C(c3ccc(C(F)(F)F)cc3)CC2)Cn2cc([N+](=O)[O-])nc2O1 (stereo not given) | 113 to 115 °C
40 | CCNC(=O)C(C)(Cc1cc2ccccc2s1)C(N)=O (stereo not given) | 141 to 143 °C
41 | O=S1(=O)c2ccccc2-c2ccccc2N1CCCN1CCN(c2ccc(F)cc2)CC1 | 163 °C
42 | COC(=O)[C@H](C)NC(=O)CCCN(C(=O)c1ccc(Cl)cc1)c1c(C)cccc1C | 91 to 92 °C
43 | Cc1cc([N+](=O)[O-])c(Cl)c([N+](=O)[O-])c1CBr | 115 to 120 °C
44 | CON=C(C)c1ccc(NS(C)(=O)=O)c(Oc2ccc(F)cc2F)c1 | 118 to 120 °C
45 | COC(=O)c1ccccc1C1NC(=S)C(C)(C(C)C)N1 (stereo not given) | 115 to 121 °C
46 | CCOC(=O)CCc1cn(Cc2ccc(OCc3cn4c(Cl)cccc4n3)cc2)nc1OCC | 69 to 70 °C
47 | CC1=C(c2nc(C)no2)C(c2cccc(Cl)c2Cl)C(c2nc(C)no2)=C(C)N1 | 227 to 229 °C
48 | Nc1cccc(-c2n[nH]c3ncnc(Nc4cccc(Cl)c4)c23)c1 | 264 to 266 °C
49 | O=C(O)c1ccc(N2C3CCC2CN(CC(=O)N2CC=C(c4cccc5ccsc45)CC2)C3)nc1 | 121 to 122 °C
50 | CCOC(=O)Cn1c2c(c3cc(Cl)c(Cl)cc31)CCN(C(=O)OC(C)(C)C)CC2 | 138 to 140 °C
51 | c1ccc(C2COc3ccccc3C2)cc1 (stereo not given) | 54 to 56 °C
52 | COC(=O)CNC(=O)CNC(=O)CNC(=O)OC(C)(C)C (Boc-Gly-Gly-Gly-OMe) | 122 to 128 °C
53 | Cc1[nH]c(=O)cnc1-c1ccc(NC(=O)OCc2ccccc2)cc1 | 232 °C
54 | O=C1c2ccccc2C(=O)C1(O)c1ccccc1O | 155 to 159 °C
55 | CC12CC(N3CCCCC3)CCC1CCC1C2CCC2(C)C(O)C(N3CCCCC3)CC12 (stereo not given) | 176 to 181 °C
56 | Nc1nc2c(c(=O)[nH]1)n(Cc1ccccc1)c(=O)n2C1OC(CO)C(O)C1O (stereo not given) | 175 °C

Continued, values first:

Row | melting point | Structure (SMILES)
57 | 85 to 86 °C | Oc1ccc(Oc2ccc(Cl)cc2)cc1
58 | 78 to 80 °C | CC1(C)[C@H]2CC=C(CCOCC(=O)O)[C@@H]1C2
59 | 129 to 131 °C | Cn1ncc(S(=O)Cc2ccccc2)c(Cl)c1=O (stereo not given)
60 | 107 to 108 °C | COCOc1cc(OC)ccc1C(=O)c1ccc(OCc2nc(-c3ccccc3)oc2C)cc1C
61 | 135 to 137 °C | Cc1ccc(C(=O)Nc2c[nH]nc2C(=O)NCCC#N)o1
62 | 155 to 156 °C | Cc1oc(-c2ccccc2)nc1COc1ccc(CON2C(=O)c3ccccc3C2=O)cc1
63 | 190 to 191 °C | CS(=O)(=O)c1ccccc1C1CCCC2(C1)C(=O)Nc1ccccc12 (stereo not given)
64 | 120 to 122 °C | CCCCOCCOc1ccc(-c2ccc3c(c2)C=C(C(=O)Nc2ccc(S(=O)Cc4cncn4CCC)cc2)CCCN3CC(C)C)cc1 (single isomer, unassigned; (-))
65 | 57 to 60 °C | CCCCCCCCCCCCCCCCCCOc1cccc(C(=O)OC)c1O
66 | 107 to 109 °C | Cn1c(C(F)(F)F)ccc(-c2c(F)cc(Cl)c3oc(C(Br)Br)cc23)c1=O
67 | 190 to 191 °C | Cc1c(-c2c(F)cc(Cl)c(=O)n2C)nn(C)c1C#N
68 | 176 to 179 °C | C#Cc1cn(C2CC(O)C(CO)O2)c(=O)n(C(=O)c2ccc(C)cc2)c1=O (stereo not given)
69 | 167 to 169 °C | COc1ccc(CSc2cccc(C(=O)Nc3ccc(C#N)cc3)c2)cc1
70 | 256 to 258 °C | O=C(O)c1cn2c3c(cccc3c1=O)CCC2
71 | 226 to 229 °C | Cc1cc(C)cc(-c2nc(NC(=O)Cc3ccccc3)sc2-c2ccncc2)c1
72 | 95 to 101 °C | CC(C)c1cccc(C(C)C)c1OS(=O)(=O)C(OC(N)=O)c1c(C(C)C)cccc1C(C)C (stereo not given)
73 | 69 to 73 °C | CCc1nc2ccc(N=C=S)cc2s1
74 | 107 to 108 °C | O=C1CCCC(c2ccc(Cl)cc2)N1c1cccnc1 (stereo not given)
75 | 165 to 166 °C | CCC(CC(=O)O)c1ccc(C(=O)OC)cc1 (stereo not given)
76 | 77 to 78 °C | CCCCCCCCCCCCCCCCCCOc1cccc(N)c1
77 | 88 to 92 °C | O[C@@H]1CCc2cc(F)c(F)cc2C1
78 | 121 to 122 °C | O=C(O)c1cccc2c(=O)cc(-c3cccc(OCc4ccccc4)c3)oc12

Row | melting point | Structure (SMILES)
79 | 134 to 135 °C | COC(=O)c1cc2c3cc(Br)ccc3n(Cc3ccccc3)c2s1
80 | 210 to 211 °C | C[C@@H](NC(=O)c1ccc(-c2ccc(C#N)cc2)s1)[C@](O)(Cn1cncn1)c1ccc(F)cc1F
81 | 169 to 171 °C | Nc1nc2ccccc2c2c1nc(CF)n2CC1(O)CCOC1 (stereo not given)
82 | 207 to 209 °C | CSC1=C([N+](=O)[O-])CCN1
83 | 216 to 218 °C | c1cc(-c2cncnc2)cc(-n2cnc3cc(-c4ccoc4)ccc32)c1
84 | 256 °C | COc1cc2nc(C(=O)Nc3cc(C)cc(C)n3)[nH]c2cc1OC
85 | 120 to 123 °C | CCCc1c(OCc2cccc(C(=O)NCCCCc3cccnc3)c2)ccc(C(C)=O)c1O
86 | 186 to 190 °C | Cn1cc(CN2CCCNC2=C[N+](=O)[O-])cn1
87 | 144 to 145 °C | O=C(N[C@H](Cc1ccc(C(F)(F)F)cc1)[C@@H](O)c1ccc(F)cc1)c1cccc(Oc2ccccc2)c1 (racemic)
88 | 165 to 167 °C | C=CCN(CC=C)c1nc(NC(=O)Cc2ccccc2)n2oc(=O)nc2n1
89 | 136 to 137 °C | C=C(COc1ccc(C(=O)CCC(=O)O)cc1)COc1ccc(C(C)=O)c(O)c1CCC
90 | 218 to 220 °C | O=C(O)c1ccc(=O)n(CCCNC(=O)c2cccnc2)c1
91 | 101 to 103 °C | CS(=O)(=O)N(Cc1ccccc1)c1ccc(C(=O)CBr)cc1
92 | 107 to 108 °C | CCOC(=O)c1[nH]c2c(C)ccc(C)c2c1-c1ccccc1
93 | 260 to 264 °C | O=C(O)c1coc2ccc(Br)cc2c1=O
94 | 157 to 160 °C | CN1C(C)(C)CC(CNc2nc(NO)nc(NCC3CC(C)(C)N(C)C(C)(C)C3)n2)CC1(C)C
95 | 110 to 112 °C | CCCc1cc(C(=O)NCCC(N)=O)ccc1OC(C(=O)NS(=O)(=O)c1ccc(C(C)C)cc1)c1ccc2c(c1)OCO2 (stereo not given)
96 | 212 to 214 °C | CN1CCN(c2cc3c(Cl)cccc3c(=O)[nH]2)CC1CO (stereo not given)
97 | 135 to 137 °C | COc1ccc(N2CCN(c3c(C)c(C)c4c(c3C)CC(C)(C)O4)CC2)cc1OC
98 | 217 to 219 °C | CC(C)OC(=O)n1cc(F)c(N)nc1=O
99 | 117 to 119 °C | CC(C)CNc1cc[nH]c(=S)c1C#N
100 | 198 to 200 °C | O=c1oc2c3ccccc3ccc2c2occc12
